From ChEMBL document CHEMBL1150330, “Muscarinic antagonists with multiple stereocenters: Synthesis, affinity profile and functional activity of isomeric 1-methyl-2-(2,2-alkylaryl-1,3-oxathiolan-5-yl)pyrrolidine sulfoxide derivatives” (Bioorg Med Chem, 2008) come the findings set out here.

The Ki is a measure of affinity in units of concentration, obtained from inhibition or displacement. High values mean weaker binding, low ones tighter binding. As usually defined, the pKb is the negative decadic logarithm of the Kb, by convention in mol/L.

The structures appear in SMILES notation.

The target in assay [1] is T1, Muscarinic acetylcholine receptor M1 (Homo sapiens, UniProt P11229).
T1 sequence (P11229 whole entry): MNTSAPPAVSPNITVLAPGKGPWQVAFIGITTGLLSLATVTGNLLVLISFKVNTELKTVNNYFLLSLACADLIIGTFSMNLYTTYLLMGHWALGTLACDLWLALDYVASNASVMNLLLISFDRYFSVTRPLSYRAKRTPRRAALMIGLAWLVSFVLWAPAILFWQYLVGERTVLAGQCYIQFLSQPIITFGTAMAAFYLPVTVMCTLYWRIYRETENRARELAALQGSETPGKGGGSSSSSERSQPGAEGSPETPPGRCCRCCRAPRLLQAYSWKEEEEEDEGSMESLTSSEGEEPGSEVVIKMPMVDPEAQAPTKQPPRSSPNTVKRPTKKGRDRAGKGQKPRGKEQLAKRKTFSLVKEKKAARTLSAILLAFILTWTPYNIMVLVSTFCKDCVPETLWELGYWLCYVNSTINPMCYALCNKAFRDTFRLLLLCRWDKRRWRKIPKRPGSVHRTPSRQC
Nature of the assay: Displacement of [3H]NMS from human muscarinic M1 receptor expressed in CHO cells. The format is cell-based. In general terms: Loss of bound radioactivity is the signal in a displacement assay; it reports binding, not function.

Assay [2] deals with T2, Muscarinic acetylcholine receptor M2 (Homo sapiens, UniProt P08172).
T2 sequence (P08172 whole entry): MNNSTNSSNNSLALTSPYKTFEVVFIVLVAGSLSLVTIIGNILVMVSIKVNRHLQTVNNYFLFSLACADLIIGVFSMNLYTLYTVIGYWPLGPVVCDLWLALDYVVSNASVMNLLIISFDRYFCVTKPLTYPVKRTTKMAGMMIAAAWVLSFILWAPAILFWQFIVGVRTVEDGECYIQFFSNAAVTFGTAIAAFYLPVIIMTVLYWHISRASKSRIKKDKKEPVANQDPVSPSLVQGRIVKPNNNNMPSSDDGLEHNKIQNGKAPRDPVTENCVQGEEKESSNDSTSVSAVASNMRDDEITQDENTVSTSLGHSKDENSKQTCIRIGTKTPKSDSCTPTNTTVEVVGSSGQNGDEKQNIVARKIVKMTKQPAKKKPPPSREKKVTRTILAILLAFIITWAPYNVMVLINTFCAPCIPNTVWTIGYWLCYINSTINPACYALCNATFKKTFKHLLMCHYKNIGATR
Nature of the assay: Displacement of [3H]NMS from human muscarinic M2 receptor expressed in CHO cells. The format is cell-based.

Assay [3] addresses Muscarinic acetylcholine receptor M3 (Homo sapiens, UniProt P20309). Nature of the assay: Displacement of [3H]NMS from human muscarinic M3 receptor expressed in CHO cells. It is filed as cell-based.
The target in assay [4] is T3, Muscarinic acetylcholine receptor M4 (Homo sapiens, UniProt P08173).
T3 sequence (P08173 whole entry): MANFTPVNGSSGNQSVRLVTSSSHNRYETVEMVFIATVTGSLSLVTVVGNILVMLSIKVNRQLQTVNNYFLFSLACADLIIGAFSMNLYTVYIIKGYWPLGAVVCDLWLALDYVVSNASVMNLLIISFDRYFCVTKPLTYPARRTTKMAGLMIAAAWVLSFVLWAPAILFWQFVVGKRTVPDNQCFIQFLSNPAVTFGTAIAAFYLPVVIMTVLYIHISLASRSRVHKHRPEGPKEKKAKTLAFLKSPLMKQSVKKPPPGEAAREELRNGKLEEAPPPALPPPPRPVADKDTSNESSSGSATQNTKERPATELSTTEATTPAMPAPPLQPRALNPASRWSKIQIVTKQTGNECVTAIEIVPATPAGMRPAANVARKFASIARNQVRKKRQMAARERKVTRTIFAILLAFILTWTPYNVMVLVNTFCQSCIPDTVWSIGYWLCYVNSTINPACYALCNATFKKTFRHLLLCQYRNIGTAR
The assay can be described thus: Displacement of [3H]NMS from human muscarinic M4 receptor expressed in CHO cells. It is filed as cell-based.

The target in assay [5] is T4, Muscarinic acetylcholine receptor M5 (Homo sapiens, UniProt P08912).
T4 sequence (P08912 whole entry): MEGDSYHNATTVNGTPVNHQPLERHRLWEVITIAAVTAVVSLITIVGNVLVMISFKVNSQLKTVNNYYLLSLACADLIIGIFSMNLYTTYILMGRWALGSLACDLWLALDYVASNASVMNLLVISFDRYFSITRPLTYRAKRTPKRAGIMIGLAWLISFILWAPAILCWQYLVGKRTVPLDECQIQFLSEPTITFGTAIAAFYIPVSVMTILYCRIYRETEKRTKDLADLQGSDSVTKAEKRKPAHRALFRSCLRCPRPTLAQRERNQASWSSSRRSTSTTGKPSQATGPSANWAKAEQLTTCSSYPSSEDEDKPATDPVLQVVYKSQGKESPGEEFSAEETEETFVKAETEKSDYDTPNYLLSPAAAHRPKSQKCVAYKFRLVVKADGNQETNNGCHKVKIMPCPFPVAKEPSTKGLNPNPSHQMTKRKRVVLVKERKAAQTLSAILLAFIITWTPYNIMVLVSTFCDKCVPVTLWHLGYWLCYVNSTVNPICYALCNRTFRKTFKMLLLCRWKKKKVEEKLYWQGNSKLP
Nature of the assay: Displacement of [3H]NMS from human muscarinic M5 receptor expressed in CHO cells. The format is cell-based.

Assay [6] is described as follows: Antagonist activity against muscarinic M2 receptor in guinea pig atria assessed as effect on electrically-stimulated atria. The format is functional, Cavia porcellus.
The nature of assay [7]: Antagonist activity against muscarinic M3 receptor in guinea pig ileum assessed as effect on ileum tension. It is filed as functional, Cavia porcellus.
Assay [8] can be described thus: Antagonist activity against muscarinic M4 receptor in guinea pig lung strip assessed as effect on electrically-stimulated contraction. The format is functional, Cavia porcellus.

Muscarinic acetylcholine receptor M3, sequence (P20309 whole entry): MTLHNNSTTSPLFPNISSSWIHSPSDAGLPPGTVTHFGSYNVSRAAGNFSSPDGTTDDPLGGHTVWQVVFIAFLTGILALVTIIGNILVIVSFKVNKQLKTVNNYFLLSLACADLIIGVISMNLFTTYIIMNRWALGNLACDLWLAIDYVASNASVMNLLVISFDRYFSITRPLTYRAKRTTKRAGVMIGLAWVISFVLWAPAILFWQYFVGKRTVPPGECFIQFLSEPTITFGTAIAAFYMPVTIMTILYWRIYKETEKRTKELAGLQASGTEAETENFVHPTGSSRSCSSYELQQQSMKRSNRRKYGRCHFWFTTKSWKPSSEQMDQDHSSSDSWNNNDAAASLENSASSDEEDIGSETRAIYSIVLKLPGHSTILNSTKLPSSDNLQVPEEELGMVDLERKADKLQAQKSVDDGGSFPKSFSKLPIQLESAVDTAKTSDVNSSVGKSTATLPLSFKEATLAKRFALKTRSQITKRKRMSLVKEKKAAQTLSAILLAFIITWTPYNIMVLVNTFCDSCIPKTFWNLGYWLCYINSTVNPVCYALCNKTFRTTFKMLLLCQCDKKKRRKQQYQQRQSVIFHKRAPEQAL

Regarding `CN1CCC[C@@H]1[C@@H]1C[S+]([O-])[C@](c2ccccc2)(C2CCCCC2)O1` (stereo in doubt; (-)-6), the inhibitory constant (Ki) in assay [1] was 79.4 nM; in assay [2], 107 nM; in assay [3], 195 nM; in assay [4], 355 nM; in assay [5], 275 nM. The pKb came out at 7.34 in assay [6], 7.39 in assay [7] and 7.24 in assay [8].
Consider `CN1CCC[C@@H]1[C@@H]1C[S+]([O-])[C@](c2ccccc2)(C2CCCCC2)O1` (stereo in doubt; (-)-7), for which the Ki was 14.1 nM in assay [1]; 4.17 nM in assay [2]; 42.7 nM in assay [3]; 42.7 nM in assay [4]; 58.9 nM in assay [5]. The pKb in assay [6] is 9.37; in assay [7] it was 8.71; in assay [8] it was 6.92.
As for `CN1CCC[C@H]1[C@H]1C[S+]([O-])[C@](c2ccccc2)(C2CCCCC2)O1` (stereo in doubt; (-)-8), the Ki was 537 nM in assay [1]; 1450 nM in assay [2]; 692 nM in assay [3]; 1510 nM in assay [4]; 759 nM in assay [5]. The values for the pKb in assay [6], in assay [7] and in assay [8] were 5.71, 5.95 and 5.19, respectively.
For `CN1CCC[C@H]1[C@H]1C[S+]([O-])[C@](c2ccccc2)(C2CCCCC2)O1` (stereo in doubt; (-)-9), the Ki was 93.3 nM in assay [1]; 302 nM in assay [2]; 347 nM in assay [3]; 501 nM in assay [4]; 380 nM in assay [5]. Besides, the negative-log Kb (pKb) came out at 6.59 in assay [6], 7.1 in assay [7] and 5.13 in assay [8].
For `C[N+]1(C)CCC[C@@H]1[C@@H]1C[S+]([O-])C(c2ccccc2)(c2ccccc2)O1.[I-]` (stereo in doubt; (-)-10), the Ki in assay [1] is 53.7 nM; in assay [2] it was 69.2 nM; in assay [3], 263 nM; in assay [4] it was 282 nM; in assay [5] it was 182 nM. The pKb stood at 7.3 in assay [6], 7.5 in assay [7] and 6.53 in assay [8].
For the compound `C[N+]1(C)CCC[C@H]1[C@H]1C[S+]([O-])C(c2ccccc2)(c2ccccc2)O1.[I-]` (stereo in doubt; (-)-11), the Ki was 15.8 nM in assay [1]; 41.7 nM in assay [2]; 51.3 nM in assay [3]; 105 nM in assay [4]; 30.2 nM in assay [5]. Also, the pKb in assay [6] was 6.93; in assay [7], 7.89; in assay [8], less than 5.
Take `C[N+]1(C)CCC[C@@H]1[C@@H]1C[S+]([O-])[C@](c2ccccc2)(C2CCCCC2)O1.[I-]` (stereo in doubt; (-)-12): the Ki in assay [1] is 56.2 nM; in assay [2], 85.1 nM; in assay [3], 288 nM; in assay [4], 316 nM; in assay [5], 195 nM. In addition, the pKb in assay [6] is recorded as 7.91; in assay [7], 7.11; in assay [8] it was 7.45.
As to `C[N+]1(C)CCC[C@@H]1[C@@H]1C[S+]([O-])[C@](c2ccccc2)(C2CCCCC2)O1.[I-]` (stereo in doubt; (-)-13), the Ki in assay [1] was 117 nM; in assay [2] it was 95.5 nM; in assay [3] it was 324 nM; in assay [4], 468 nM; in assay [5], 302 nM. Also, the pKb was determined as 7.51 in assay [6], 7.22 in assay [7] and 6.06 in assay [8].
For `C[N+]1(C)CCC[C@H]1[C@H]1C[S+]([O-])[C@](c2ccccc2)(C2CCCCC2)O1.[I-]` (stereo in doubt; (-)-14), the Ki in assay [1] is 155 nM; in assay [2], 550 nM; in assay [3], 324 nM; in assay [4] it was 603 nM; in assay [5], 331 nM. Besides, the pKb in assay [6] turned out to be 6.03; in assay [7], 6.68; in assay [8] it was 5.24.
Take `C[N+]1(C)CCC[C@H]1[C@H]1C[S+]([O-])[C@](c2ccccc2)(C2CCCCC2)O1.[I-]` (stereo in doubt; (-)-15): the Ki in assay [1] was 19.5 nM; in assay [2], 57.5 nM; in assay [3], 77.6 nM; in assay [4], 112 nM; in assay [5], 41.7 nM. Also, the pKb worked out at 6.92 in assay [6], 7.9 in assay [7] and 5.64 in assay [8].
